Measurements taken from PMC10460087, “Structure Activity Relationship and Molecular Docking of Some Quinazolines Bearing Sulfamerazine Moiety as New 3CLpro, cPLA2, sPLA2 Inhibitors” (Molecules, 2023).
Where two headings read alike, the source gives them in different places. Marks after values point to notes of the source that are not given here.

Legend:
[1] = test system: TNF-α; type: cell-based, mouse; conditions: for decrease in TNF-α level: compared to LPS-exposed cells
[2] = test system: sPLA2; type: cell-based, mouse; conditions: for decrease in sPLA2 level: compared to LPS-exposed cells
[3] = molecular target: sPLA2; test: sPLA2 enzyme inhibition assay (Cayman Chemical kit); type: biochemical; conditions: mean ± SD; tested 0–17.5 µM
Experimental: The sPLA2 screening assay was carried out according to the manufacturer’s protocol (Cayman Chemical). Briefly, 10 μL of sPLA2 was mixed with 10 μL of dimethyl sulfoxide. In a separate experiment, 10 µL of sPLA2 was added to 10 µL standard sPLA2 inhibitor (thioetheramide, 12.5 µM) and 200 µL substrate solution (diheptanoyl thiol). […] In a separate experiment, 10 μL of assay buffer was mixed with 10 μL of dimethyl sulfoxide and 200 µL of substrate solution. The reaction was initiated by the addition 10 µL of DTNB to all samples. The plate was carefully vortexed for 10 s, then covered with a plate cover and incubated for 15 min at 25 °C. Absorbance was recorded at […] using a plate reader and the IC50 was determined for the synthesized compounds (4–6 and 12) as well as the standard drugs.

[4] = test system: NO; type: cell-based, mouse; conditions: for decrease in NO level: compared to LPS-exposed cells
[5] = test system: IL-8; test: IL-8 level in LPS-treated isolated lung cells (ELISA); type: cell-based, mouse; conditions: for decrease in IL-8 level: compared to LPS-exposed cells
[6] = molecular target: cPLA2; test: biochemical; set-up: species or system bee
Target sequence in this assay (P00630 34-167 limits assumed): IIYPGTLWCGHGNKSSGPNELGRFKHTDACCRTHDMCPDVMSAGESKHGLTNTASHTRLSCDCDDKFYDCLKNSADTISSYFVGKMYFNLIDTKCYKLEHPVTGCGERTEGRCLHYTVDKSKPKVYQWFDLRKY

[7] = test system: cPLA2; type: cell-based, mouse; conditions: for decrease in cPLA2 level: compared to LPS-exposed cells
[8] = molecular target: SARS-CoV-2 main protease (Severe acute respiratory syndrome coronavirus 2, UniProt P0DTD1); test: biochemical; conditions: mean ± SD; tested 0–17.5 µM
[9] = molecular target: cPLA2 (bee venom PLA2) (Apis mellifera, UniProt P00630); test: biochemical
[10] = LPS 1 μg/mL + higher dose: 4 2.84, 5 3.68, 6 1.18, 12 5.47, baicalein 3.88, ivermectin 149.39 µM
[11] = LPS 1 μg/mL + lower dose: 4 1.44, 5 2.08, 6 0.5, 12 2.39, baicalein 0.89, ivermectin 131.01 µM
[12] = higher dose: 4 2.84, 5 3.68, 6 1.18, 12 5.47, baicalein 3.88, ivermectin 149.39 µM
[13] = lower dose: 4 1.44, 5 2.08, 6 0.5, 12 2.39, baicalein 0.89, ivermectin 131.01 µM

Chain of cPLA2 (bee venom PLA2) (P00630 34-167 limits assumed): as above

O=c1cc(-c2ccccc2)oc2cc(O)c(O)c(O)c12 [Baicalein, reference compound]
TNF-α level [1, 10]: 431.21 ± 32.88 ^c pg/mL
TNF-α level [1, 11]: 639.55 ± 37.84 ^g pg/mL
decrease in TNF-α level [1, 12]: 56.01%
decrease in TNF-α level [1, 13]: 34.76%
sPLA2 level [2, 10]: 24.77 ± 2.73 ^c pg/mL
sPLA2 level [2, 11]: 54.27 ± 3.46 ^h pg/mL
decrease in sPLA2 level [2, 12]: 80.88%
decrease in sPLA2 level [2, 13]: 58.11%
IC50 [3]: 890 ± 41 nM
NO level [4, 10]: 20.53 ± 1.89 ^c µmol/L
NO level [4, 11]: 32.01 ± 4.81 ^f µmol/L
decrease in NO level [4, 12]: 70.07%
decrease in NO level [4, 13]: 53.33%
IL-8 level [5, 10]: 1.42 ± 0.13 ^c ng/mL
IL-8 level [5, 11]: 2.06 ± 0.23 ^g ng/mL
decrease in IL-8 level [5, 12]: 75.26%
decrease in IL-8 level [5, 13]: 64.11%
IC50 [6]: 3880 ± 13 nM
cPLA2 level [7, 10]: 616.34 ± 28.34 ^c dpm/mL
cPLA2 level [7, 11]: 903.43 ± 35.71 ^g dpm/mL
decrease in cPLA2 level [7, 12]: 78.13%
decrease in cPLA2 level [7, 13]: 67.33%

Cc1ccnc(NS(=O)(=O)c2ccc(Nc3nc4ccccc4c(=O)n3N)cc2)n1 [Compound 4]
TNF-α level [1, 10]: 481.36 ± 39.63 ^d pg/mL
TNF-α level [1, 11]: 654.20 ± 22.28 ^h pg/mL
decrease in TNF-α level [1, 12]: 50.90%
decrease in TNF-α level [1, 13]: 33.36%
IC50 [8]: 2012 ± 4 nM
sPLA2 level [2, 10]: 29.10 ± 2.52 ^d pg/mL
sPLA2 level [2, 11]: 57.93 ± 2.92 ^i pg/mL
decrease in sPLA2 level [2, 12]: 77.54%
decrease in sPLA2 level [2, 13]: 55.29%
IC50 [3]: 2840 ± 26 nM
NO level [4, 10]: 25.18 ± 2.98 ^d µmol/L
NO level [4, 11]: 37.27 ± 3.00 ^c µmol/L
decrease in NO level [4, 12]: 63.29%
decrease in NO level [4, 13]: 45.66%
IL-8 level [5, 10]: 2.17 ± 0.07 ^d ng/mL
IL-8 level [5, 11]: 2.55 ± 0.26 ^c ng/mL
decrease in IL-8 level [5, 12]: 62.20%
decrease in IL-8 level [5, 13]: 55.57%
IC50 [6]: 1440 ± 9 nM
cPLA2 level [7, 10]: 671.05 ± 29.17 ^d dpm/mL
cPLA2 level [7, 11]: 1077.77 ± 68.61 ^i dpm/mL
decrease in cPLA2 level [7, 12]: 76.19%
decrease in cPLA2 level [7, 13]: 61.75%

COc1cc(C=Nn2c(Nc3ccc(S(=O)(=O)Nc4nccc(C)n4)cc3)nc3ccccc3c2=O)ccc1O [Compound 5]
TNF-α level [1, 10]: 524.98 ± 19.11 ^e pg/mL
TNF-α level [1, 11]: 671.91 ± 23.11 ^i pg/mL
decrease in TNF-α level [1, 12]: 46.44%
decrease in TNF-α level [1, 13]: 31.26%
IC50 [8]: 3680 ± 2350 nM
sPLA2 level [2, 10]: 34.17 ± 1.73 ^e pg/mL
sPLA2 level [2, 11]: 72.13 ± 3.94 ^k pg/mL
decrease in sPLA2 level [2, 12]: 73.63%
decrease in sPLA2 level [2, 13]: 44.33%
IC50 [3]: 2730 ± 8 nM
NO level [4, 10]: 29.37 ± 2.21 ^f µmol/L
NO level [4, 11]: 45.75 ± 2.87 ^g µmol/L
decrease in NO level [4, 12]: 57.18%
decrease in NO level [4, 13]: 33.29%
IL-8 level [5, 10]: 2.40 ±0.09 ^e ng/mL
IL-8 level [5, 11]: 2.74 ± 0.32 ^c ng/mL
decrease in IL-8 level [5, 12]: 58.19%
decrease in IL-8 level [5, 13]: 52.26%
IC50 [6]: 2080 ± 16 nM
cPLA2 level [7, 10]: 719.32 ± 37.15 ^e dpm/mL
cPLA2 level [7, 11]: 1258.99 ± 35.57 ^k dpm/mL
decrease in cPLA2 level [7, 12]: 74.48%
decrease in cPLA2 level [7, 13]: 55.32%

Cc1ccnc(NS(=O)(=O)c2ccc(N3CC(=O)Nn4c3nc3ccccc3c4=O)cc2)n1 [Compound 6]
TNF-α level [1, 10]: 424.25 ± 36.86 ^f pg/mL
TNF-α level [1, 11]: 582.31 ± 52.25 ^e pg/mL
decrease in TNF-α level [1, 12]: 56.72%
decrease in TNF-α level [1, 13]: 40.59%
IC50 [8]: 1180 ± 25 nM
sPLA2 level [2, 10]: 18.29 ± 2.35 ^b pg/mL
sPLA2 level [2, 11]: 43.44 ± 2.74 ^g pg/mL
decrease in sPLA2 level [2, 12]: 85.88%
decrease in sPLA2 level [2, 13]: 66.47%
IC50 [3]: 1020 ± 39 nM
NO level [4, 10]: 19.02 ± 1.5 ^b µmol/L
NO level [4, 11]: 24.67 ± 2.70 ^e µmol/L
decrease in NO level [4, 12]: 72.27%
decrease in NO level [4, 13]: 64.03%
IL-8 level [5, 10]: 1.17 ± 0.06 ^b ng/mL
IL-8 level [5, 11]: 1.79 ± 0.14 ^d ng/mL
decrease in IL-8 level [5, 12]: 79.62%
decrease in IL-8 level [5, 13]: 68.82%
IC50 [6]: 500 ± 8 nM
cPLA2 level [7, 10]: 536.93 ± 23.50 ^b dpm/mL
cPLA2 level [7, 11]: 830.11 ± 34.00 ^f dpm/mL
decrease in cPLA2 level [7, 12]: 80.94%
decrease in cPLA2 level [7, 13]: 70.54%

CCOC(=O)c1nn2c(=O)c3ccccc3nc2n1-c1ccc(S(=O)(=O)Nc2nccc(C)n2)cc1 [Compound 12]
TNF-α level [1, 10]: 551.52 ± 24.65 ^f pg/mL
TNF-α level [1, 11]: 748.98 ± 31.22 ^j pg/mL
decrease in TNF-α level [1, 12]: 43.75%
decrease in TNF-α level [1, 13]: 23.59%
IC50 [8]: 5470 ± 18 nM
sPLA2 level [2, 10]: 40.61 ± 4.19 ^f pg/mL
sPLA2 level [2, 11]: 85.23 ± 6.51 ^l pg/mL
decrease in sPLA2 level [2, 12]: 68.66%
decrease in sPLA2 level [2, 13]: 34.22%
IC50 [3]: 4450 ± 7 nM
NO level [4, 10]: 30.94 ± 3.76 ^f µmol/L
NO level [4, 11]: 50.36 ± 3.96 ^h µmol/L
decrease in NO level [4, 12]: 54.89%
decrease in NO level [4, 13]: 26.57%
IL-8 level [5, 10]: 3.21 ± 0.21 ^f ng/mL
IL-8 level [5, 11]: 3.84 ± 0.29 ^g ng/mL
decrease in IL-8 level [5, 12]: 44.08%
decrease in IL-8 level [5, 13]: 33.10%
IC50 [6]: 2390 ± 46 nM
cPLA2 level [7, 10]: 722.24 ± 30.40 ^e dpm/mL
cPLA2 level [7, 11]: 1348.21 ± 50.26 dpm/mL
decrease in cPLA2 level [7, 12]: 74.37%
decrease in cPLA2 level [7, 13]: 52.15%

Ivermectin [reference compound]
TNF-α level [1, 10]: 714.29 ± 28.09 ^g pg/mL
TNF-α level [1, 11]: 870.22 ± 40.62 ^k pg/mL
decrease in TNF-α level [1, 12]: 27.13%
decrease in TNF-α level [1, 13]: 11.23%
IC50 [8]: 42400 ± 2500 nM
sPLA2 level [2, 10]: 62.31 ± 1.41 ^j pg/mL
sPLA2 level [2, 11]: 106.13 ± 9.81 ^m pg/mL
decrease in sPLA2 level [2, 12]: 51.41%
decrease in sPLA2 level [2, 13]: 18.09%
IC50 [3]: 110000 ± 3270 nM
NO level [4, 10]: 50.74 ± 3.34 ^h µmol/L
NO level [4, 11]: 62.01 ± 4.81 ^i µmol/L
decrease in NO level [4, 12]: 26.02%
decrease in NO level [4, 13]: 9.59%
IL-8 level [5, 10]: 3.10 ± 0.1 ^f ng/mL
IL-8 level [5, 11]: 3.77 ± 0.62 ^g ng/mL
decrease in IL-8 level [5, 12]: 45.99%
decrease in IL-8 level [5, 13]: 34.32%
IC50 [9]: 138000 ± 1540 nM
cPLA2 level [7, 10]: 1002.65 ± 90.98 ^h dpm/mL
cPLA2 level [7, 11]: 1172.50 ± 72.55 ^j dpm/mL
decrease in cPLA2 level [7, 12]: 64.41%
decrease in cPLA2 level [7, 13]: 58.39%
